Measured values: patent publication US20230091221A1, “PHARMACEUTICAL COMPOSITION” (Chugai Seiyaku Kabushiki Kaisha, priority 2017, published 2023)

Legend:
Format in all cases: in vivo
[1] = test system: Foxp3-positive CD4-positive regulatory T cells in tumor; test: Foxp3-positive CD4-positive regulatory T cells in tumor in FM3A syngeneic mouse model (flow cytometry); conditions: day 8; irinotecan 250 mg/kg ip once
Description: On day 8 of administration, tumors were collected, and then cells were dissociated using a gentleMACS (Trademark) Octo Dissociator, washed, and then used for flow cytometry, thereby measuring Foxp3-positive CD4-positive regulatory T cells by flow cytometry (FIG. 4).

[2] = test system: CD8-positive T cells in peripheral blood; test: Number of CD8-positive T cells in peripheral blood in FM3A syngeneic mouse model (flow cytometry); conditions: day 8; irinotecan 250 mg/kg ip once; P<0.05, Wilcoxon Signed-Rank Test
Procedure: On day 8 of administration, peripheral blood was collected, CD8-positive T cells were measured by flow cytometry (FIG. 2).

[3] = test system: CD8-positive T cells in tumor; test: CD8, CD69 or Ki-67-positive tumor-infiltrating lymphocytes in FM3A syngeneic mouse model (flow cytometry); conditions: day 8, irinotecan 250 mg/kg ip once
Description: On day 8 of administration, tumors were collected, and then cells were dissociated using a gentleMACS (Trademark) Octo Dissociator, washed, and then used for flow cytometry, thereby quantitatively determining CD8, CD69 or Ki-67-positive tumor-infiltrating lymphocytes (TIL) (FIG. 3).

CCc1c2c(nc3ccc(OC(=O)N4CCC(N5CCCCC5)CC4)cc13)-c1cc3c(c(=O)n1C2)COC(=O)[C@]3(O)CC [irinotecan]
Foxp3-positive CD4-positive regulatory T cells in tumors versus solvent administration group [1]: significantly lower
number of CD8-positive T cells in peripheral blood versus solvent administration group [2]: significantly lower
CD8-positive T cells in lymph nodes compared with the solvent administration group (FIG. 3A) [3]: not found to exhibit any significant decrease
CD69-positive CD8-positive T cells among tumor cells compared with the solvent administration group (FIG. 3B) [3]: not found to exhibit any significant decrease
Ki-67-positive CD8-positive T cells in tumors compared with the solvent administration group (FIG. 3C) ([3]; 10F.9G2 10 mg/kg ip 3 times a week): significant increases
